Publication PMC7777204, “Locking mixed-lineage kinase domain-like protein in its auto-inhibited state prevents necroptosis” (Proceedings of the National Academy of Sciences of the …, 2020)
pIC50: −log10 of the molar value.

How the values were obtained:
[1] = target: T1, MLKL F148A executioner domain (Homo sapiens, UniProt Q8NB16, F148A); assay: Functional NMR assay (detachment of α-helix 6), F148A variant; type: biochemical
T1 construct: 80 µM MLKL N-terminal executioner domain (residues 1 to 154) was used; GST (thrombin cleavage site) (cleaved yes)
T1 sequence (Q8NB16 1-154 F148A): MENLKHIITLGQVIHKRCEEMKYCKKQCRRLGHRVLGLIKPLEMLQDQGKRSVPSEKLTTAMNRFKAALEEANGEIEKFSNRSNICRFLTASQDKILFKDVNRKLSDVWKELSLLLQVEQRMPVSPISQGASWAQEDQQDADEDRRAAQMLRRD
Text: To test the significance of the additional interaction between α-helix 6 and the four-helix bundle provided by the xanthine compounds stacking to the phenyl ring of Phe148, we used a described functional NMR assay ([12]). Binding of phytic acid (IP6) and the detergent β-D-nonylmaltoside (NM) led to the detachment of α-helix 6, which can be monitored in ^1H,^15N-correlation spectra by the altered chemical shift of the Hε1–Nε1 correlation of Trp133 and the backbone N–H correlation of Ala141 ([12]). […] Adding 12 mM NM or 500 µM IP6 led to the appearance of a second very weak peak reporting on the detached α-helix 6 with a population of the activated state (pact) of 1% and 4%, respectively (Fig. 3). […]
Fig. 3. […] The spectra depicted in A are measured with the WT protein and in B with the F148A variant. […] The asterisk means that no active conformation could be detected. Double asterisks indicate data not determined.
For the functional NMR assay ^1H,^15N-correlation spectra were recorded on a Bruker Avance III HD 600-MHz NMR spectrometer equipped with a cryogenic QCI probe in 2.5-mm NMR tubes at 298 K. Spectra were recorded with 64 complex points in the indirect dimension, 96 scans, and an interscan delay of 2 s. […] Spectra were analyzed, and peaks were integrated in CcpNnmr analysis ([39]).

U937 cells = assay: U937 apoptosis assay; type: cell-based; settings: Homo sapiens, U-937, 100 ng/mL huTNFα plus 3 µM NSA, read-out: U937 APOP IC50
Experimental: MLKL antagonists were also evaluated in a necroptosis assay with U937 cells ([26]) (ATCC catalog no. CRL-1593.2). The assay procedure with U937 cells was as described for the Jurakt FADD^−/− necroptosis assay with the following modifications: 8,000 cells were seeded per well, and, in addition to the recombinant huTNFα, cells were also incubated in the presence of 10 µM (f.c.) carbobenzoxy-valyl-alanyl-aspartyl-[O-methyl]-fluoromethylketone (zVAD-fmk) (Enzo Life Sciences catalog no. ALX-260-020). Low controls (0% CTL) were defined as cells treated with 100 ng/mL recombinant huTNFα plus 10 µM zVAD-fmk.
Furthermore, MLKL antagonists were tested in a U937 apoptosis assay in the presence of 3 µM (f.c.) NSA (Tocris catalog no. 5025) and 100 ng/mL (f.c.) recombinant huTNFα in the same way as described for the U937 necroptosis assay. Low controls (0% CTL) were defined as cells treated with 100 ng/mL recombinant huTNFα plus 3 µM NSA.
All cellular assays were done for Cpd 1, Cpd 2, Cpd 3, Cpd 4, and Cpd 5 in duplicate and in quadruplet for NSA.

Induction of the active state by compound alone ([1]; 500 µM compound alone): small population of the active state
Population of the activated state (pact), α-helix 6 detached ([1]; 12 mM NM + 500 µM IP6 + 500 µM compound): 90%
pIC50 (U937 cells): < 4.00
Compound: Cn1c(=O)c2c(nc(S(C)(=O)=O)n2C)n(CC#Cc2cccc(O)c2)c1=O [Cpd 3]
